Laboratory results published in ChEMBL document CHEMBL3758127, “Improving selectivity of dopamine D3 receptor ligands” (Bioorg Med Chem Lett, 2016).

How the values were obtained:
[1] = biological target: T1, Alpha-1A adrenergic receptor (Homo sapiens, UniProt P35348); test: Displacement of [3H]-prazosin from human ADRA1A receptor
T1 sequence (P35348 whole entry): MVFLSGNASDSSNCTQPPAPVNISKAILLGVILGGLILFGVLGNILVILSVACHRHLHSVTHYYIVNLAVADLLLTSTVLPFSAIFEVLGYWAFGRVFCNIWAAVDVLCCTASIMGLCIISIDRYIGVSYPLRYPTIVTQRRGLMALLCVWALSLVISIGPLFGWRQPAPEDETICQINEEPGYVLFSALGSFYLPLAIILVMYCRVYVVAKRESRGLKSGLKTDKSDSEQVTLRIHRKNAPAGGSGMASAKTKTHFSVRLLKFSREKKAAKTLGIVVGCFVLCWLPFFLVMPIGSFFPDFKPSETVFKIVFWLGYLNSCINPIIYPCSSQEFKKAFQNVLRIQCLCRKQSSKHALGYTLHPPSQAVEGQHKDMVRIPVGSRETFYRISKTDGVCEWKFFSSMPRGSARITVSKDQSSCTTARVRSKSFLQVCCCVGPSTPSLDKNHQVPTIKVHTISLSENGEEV

[2] = biological target: D(3) dopamine receptor (Homo sapiens, UniProt P35462); test: Displacement of [3H]-spiperone from human dopamine D3 receptor expressed in CHO cell membranes
[3] = organism: Homo sapiens; test: Selectivity ratio of Ki for human ADRA1A receptor to Ki for human dopamine D3 receptor
[4] = biological target: hERG (KCNH2) (Homo sapiens, UniProt Q12809); test: Inhibition of dofetilide binding to human ERG at 1 uM; conditions: probe dofetilide
[5] = biological target: D(2) dopamine receptor (Homo sapiens, UniProt P14416); test: Displacement of [3H]-spiperone from human dopamine D2S receptor expressed in HEK293 cell membranes
[6] = organism: Homo sapiens; test: Selectivity ratio of Ki for human dopamine D2S receptor to Ki for human dopamine D3 receptor

Sequence of D(3) dopamine receptor (P35462 whole entry): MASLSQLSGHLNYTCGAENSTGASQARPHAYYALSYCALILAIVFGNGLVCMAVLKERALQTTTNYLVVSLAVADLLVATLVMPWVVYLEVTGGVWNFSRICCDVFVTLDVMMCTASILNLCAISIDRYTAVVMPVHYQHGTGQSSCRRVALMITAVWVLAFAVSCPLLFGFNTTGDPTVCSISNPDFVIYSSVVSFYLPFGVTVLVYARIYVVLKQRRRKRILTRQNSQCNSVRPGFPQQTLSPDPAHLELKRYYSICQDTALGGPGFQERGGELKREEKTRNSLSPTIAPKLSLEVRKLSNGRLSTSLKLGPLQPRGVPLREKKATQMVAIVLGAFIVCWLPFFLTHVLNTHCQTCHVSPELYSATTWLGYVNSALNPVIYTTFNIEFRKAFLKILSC
Sequence of D(2) dopamine receptor (P14416 whole entry): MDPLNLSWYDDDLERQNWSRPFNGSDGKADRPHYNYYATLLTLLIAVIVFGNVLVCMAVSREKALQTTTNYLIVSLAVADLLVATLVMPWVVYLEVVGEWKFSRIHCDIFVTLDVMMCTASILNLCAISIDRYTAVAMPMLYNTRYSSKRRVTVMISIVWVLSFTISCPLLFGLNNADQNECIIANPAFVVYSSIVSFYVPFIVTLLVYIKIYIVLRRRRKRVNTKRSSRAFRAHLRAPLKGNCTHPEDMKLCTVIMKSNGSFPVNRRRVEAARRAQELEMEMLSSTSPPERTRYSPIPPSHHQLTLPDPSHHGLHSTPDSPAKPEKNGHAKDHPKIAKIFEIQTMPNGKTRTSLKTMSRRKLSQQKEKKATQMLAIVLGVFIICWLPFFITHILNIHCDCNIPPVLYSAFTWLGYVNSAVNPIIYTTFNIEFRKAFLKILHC
Sequence of hERG (KCNH2) (Q12809 whole entry): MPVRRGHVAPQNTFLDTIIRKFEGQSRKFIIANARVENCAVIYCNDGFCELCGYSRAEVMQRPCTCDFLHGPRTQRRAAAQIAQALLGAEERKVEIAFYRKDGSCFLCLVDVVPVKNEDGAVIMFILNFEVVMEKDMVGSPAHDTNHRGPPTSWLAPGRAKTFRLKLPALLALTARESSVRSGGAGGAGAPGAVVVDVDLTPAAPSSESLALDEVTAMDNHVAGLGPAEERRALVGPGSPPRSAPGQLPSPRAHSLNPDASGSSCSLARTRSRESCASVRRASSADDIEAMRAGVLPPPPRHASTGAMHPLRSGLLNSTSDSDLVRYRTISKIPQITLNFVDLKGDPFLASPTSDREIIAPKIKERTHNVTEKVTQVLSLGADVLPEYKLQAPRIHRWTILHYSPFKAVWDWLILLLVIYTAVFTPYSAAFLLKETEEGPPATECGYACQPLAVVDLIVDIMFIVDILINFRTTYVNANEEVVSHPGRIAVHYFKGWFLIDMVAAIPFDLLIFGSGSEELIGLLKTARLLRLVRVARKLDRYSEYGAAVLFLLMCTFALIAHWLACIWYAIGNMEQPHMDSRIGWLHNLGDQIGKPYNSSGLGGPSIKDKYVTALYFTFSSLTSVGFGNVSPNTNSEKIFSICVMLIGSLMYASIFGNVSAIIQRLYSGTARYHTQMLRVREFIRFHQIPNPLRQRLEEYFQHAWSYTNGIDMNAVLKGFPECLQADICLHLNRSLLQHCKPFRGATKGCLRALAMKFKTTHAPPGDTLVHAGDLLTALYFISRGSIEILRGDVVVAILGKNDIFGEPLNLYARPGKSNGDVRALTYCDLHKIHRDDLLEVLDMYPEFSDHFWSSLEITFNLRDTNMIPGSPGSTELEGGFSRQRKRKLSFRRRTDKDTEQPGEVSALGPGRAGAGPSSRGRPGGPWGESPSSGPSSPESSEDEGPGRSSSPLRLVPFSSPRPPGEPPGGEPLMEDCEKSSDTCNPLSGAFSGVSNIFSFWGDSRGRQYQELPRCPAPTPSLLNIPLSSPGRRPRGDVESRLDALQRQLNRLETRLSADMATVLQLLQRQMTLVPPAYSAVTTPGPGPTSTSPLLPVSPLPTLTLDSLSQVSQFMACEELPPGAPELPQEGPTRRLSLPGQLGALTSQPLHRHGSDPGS

Row | Compound | Ki [1] | Ki [2] | Ratio Ki [3] | inhibition at 1 µM [4] | Ki ([5]; read-out: Ki) | Ratio Ki [6] | Ki ([5]; hek293)
1 | O=C(NCCCCN1CCN(c2cccc(Cl)c2Cl)CC1)c1ccc2ccccc2c1 | 104 nM | 1.08 nM |  |  |  |  | 
2 | COc1ccccc1N1CCN(CCCCNC(=O)C2CCCCC2)CC1 | 963 nM | 0.9 nM | 1070 | 82% | 168 nM | 190 | 
3 | O=C(NCCCCN1CCN(c2cccc3[nH]c(=O)[nH]c23)CC1)c1ccc2ccccc2c1 | 158 nM | 3.5 nM | 45 |  | 131 nM | 37 | 
4 | Cc1cccc(N2CCN(CCCCNC(=O)c3ccc4ccccc4c3)CC2)c1C | 230 nM | 1.33 nM | 170 |  | 302 nM | 230 | 
5 | O=C(NCCCCN1CCN(c2ccccc2F)CC1)c1ccc2ccccc2c1 | 38.5 nM | 1.23 nM | 31 |  | 310 nM | 250 | 
6 | CCOC(=O)Nc1cccc(N2CCN(CCCCNC(=O)c3ccc4ccccc4c3)CC2)c1 | 1030 nM | 3.9 nM | 264 |  | 911 nM | 234 | 
7 | COc1ccccc1N1CCN(CCCCNC(=O)N(C)c2ccccc2)CC1 | 116 nM | 12 nM | 10 |  | 1550 nM | 130 | 
8 | O=C(NCCCCN1CCN(c2ccccc2O)CC1)c1ccc2ccccc2c1 | 46.7 nM | 12.7 nM | 3.7 |  | 5030 nM | 400 | 
9 | COc1ccccc1N1CCN(CCCCNC(=O)CC2CCCCC2)CC1 | 65.5 nM | 2 nM | 33 |  | 322 nM | 161 | 
10 | O=C(NCCCCN1CCN(c2cccc(Cl)c2)CC1)c1ccc2ccccc2c1 | 50.2 nM | 4.7 nM | 11 |  | 3320 nM | 700 | 
11 | O=C(NCCCCN1CCN(c2cccc(C(F)(F)F)c2)CC1)c1ccc2ccccc2c1 | 283 nM | 1.1 nM | 260 | 51% | 1550 nM | 1400 | 
12 | COc1ccccc1N1CCN(CCCCCOc2ccc3ccccc3c2)CC1 | 10.3 nM | 87 nM | 0.1 |  | 34 nM | 0.4 | 
13 | O=C(NCCCCN1CCN(c2cccc(O)c2)CC1)c1ccc2ccccc2c1 | 1520 nM | 0.2 nM | 7600 | 30% | 373 nM | 1900 | 
14 | COc1ccccc1N1CCN(CCCCNC(=O)CC(C)C)CC1 | 418 nM | 123 nM | 3 |  |  |  | Not Active
15 | Cc1ccccc1N1CCN(CCCCNC(=O)c2ccc3ccccc3c2)CC1 | 29.9 nM | 0.73 nM | 41 |  | 404 nM | 550 | 
16 | O=C(NCCCCN1CCN(c2ccccc2Cl)CC1)c1ccc2ccccc2c1 | 29.9 nM | 0.7 nM | 43 |  | 238 nM | 340 | 
17 | CS(=O)(=O)Nc1cccc(N2CCN(CCCCNC(=O)c3ccc4ccccc4c3)CC2)c1 | 160 nM | 1.6 nM | 100 |  | 55 nM | 34 | 
18 | O=C(NCCCCN1CCN(c2cccc3[nH]ccc23)CC1)c1ccc2ccccc2c1 | 19 nM | 1.3 nM | 15 |  | 95 nM | 73 | 
19 | O=C(NCCCCN1CCN(c2ccc(Cl)cc2)CC1)c1ccc2ccccc2c1 | 166 nM | 10.4 nM | 16 |  | 12100 nM | 1170 | 
20 | COc1ccccc1N1CCN(CCCCNC(=O)Nc2cccc(Cl)c2)CC1 | 5 nM | 1.3 nM | 4 |  | 13 nM | 10 | 
21 | COc1ccccc1N1CCN(CCCCNC(=O)N2CCOCC2)CC1 | 81 nM | 1.8 nM | 45 |  | 482 nM | 270 | 
22 | O=C1Cc2c(cccc2N2CCN(CCCCNC(=O)c3ccc4ccccc4c3)CC2)N1 | 211 nM | 0.5 nM | 420 |  | 52 nM | 100 | 
